Measured values reported in patent US6066642A, “Dihydropyridine-, pyridine-, benzopyran-4-one- and triazoloquinazoline derivative, their preparation and their use as adenosine receptor antagonists” (priority 1998, dated 2000).

Columns and labels:
A3 specific binding = A3 specific binding after blocking A1 and A2 specific binding sites with a xanthine amino congener; settings: A1 and A2 sites blocked with xanthine amino congener
Source text: Adenosine receptors have been implicated in the bronchoconstriction (BC) in allergic asthma.

[1] = test system: bak protein in U-937 cells; experiment: expression of apoptosis-inducing protein bak by immunofluorescence, U-937 cells; type: cell-based; settings: for bak labeling, U-937: 24 hours
Experimental: (§1) Cells were fixed as following steps: 10 min with 1% formalin in PBS, 5 min with […] methanol and 2 min with ice cold acetone, then permebilized with 0.1% Nonidet P-40 for 20 min. After the preparation, the specimens were incubated step by step: 10% goat serum in PBS for 20 min, mouse monoclonal anti-bak antibody (5 μg/ml PBS-BSA) for 60 min, Rhodamine (TRITC)-conjugated AffiniPure Goat Anti-mouse IgG (H+L) in PBS-BSA for 60 min. The specimens were washed 3-5 times with PBS after every step. The glass slides were stored at 4° C. in the dark.
(§2) The mechanism of the apoptosis observed in response to either A3 agonists was investigated.

HL-60 cells [2] = experiment: live cell counting with trypan blue (cell death/proliferation), HL-60 cells; type: cell-based; settings: for growth curve with A3 antagonist plus Cl-IB-MECA, HL-60: antagonist 0.5 μM plus 0.01 or 1.0 μM Cl-IB-MECA
Experimental: (§3) The HL-60 cells were maintained in RPMI 1640 supplmented with 10% fetal calf serum, 100 units/ml penicillin, […] streptomycin and 2 mM L-glutamine. The cells were split every third day, and 2 days before each experiment cultures were diluted to 2×10^5 cells/ml. For analysis of DNA content, aliquots of 2 ml were placed into 12-well flat-bottomed plates (Costar, Cambridge, Mass., U.S.A.) containing 2~6 μl test-compound solutions at defined concentrations or 6 μl DMSO (diluting medium). Live cell counting was carried out using 0.1% trypan blue.
(§4) In the latter assay, cell death was studied in HL-60 cells (FIGS. 11A-B) and in U-937 cells (FIGS. 11C-D) over a time course of 9 days. Cells in culture receiving no drug treatment proliferated geometrically until nearly the end of the experiment.

HL-60 cells [3] = experiment: apoptosis by flow cytometric DNA analysis, HL-60 cells; type: cell-based
Experimental: DNA content analysis by flow cytometry:
(§8) Cells were fixed by adding ~10^7 cells suspended in 1 ml of PBS of 1 ml 80% ethanol at -20° C. and stored for 48-120 hrs. After the cells were washed twice with PBS, the cells were stained with 20 mg/ml chromomycin A3 dissolved in PBS containing 2 mM MgCl2 by incubation in subdued light (30 min; 4° C.). The cells were then analyzed using a FACScan flow cytometer (Becton Dickinson, Mountain View, Calif.).

U-937 cells [4] = experiment: live cell counting with trypan blue (cell death/proliferation), U-937 cells; type: cell-based; settings: for growth curve with A3 antagonist plus Cl-IB-MECA, U-937: antagonist 0.5 μM plus 0.01 or 1.0 μM Cl-IB-MECA
Experimental: as §3, §4

[5] = test system: bak protein in HL-60 cells; experiment: expression of apoptosis-inducing protein bak by immunofluorescence, HL-60 cells; type: cell-based; settings: for bak labeling, HL-60: 24 hours
Experimental: as §1, §2

U-937 cells [6] = experiment: in situ end-labeling of fragmented nuclear DNA (TUNEL), U-937 cells; type: cell-based; settings: for fluorescent labeling of apoptotic cells, U-937: 50 nM, 24 h, approximately; for Percentage of apoptotic cells, U937, + Cl-IB-MECA: antagonist 50 nM plus Cl-IB-MECA 10 nM; for Percentage of apoptotic cells, U937: antagonist 50 nM
Experimental: (§5) Cells were fixed by immersing slides in 4% methanol-free formaldehyde in PBS at pH 7.4, 4° C., for 25 min. Fixed cells were permeabilized in 0.2% Triton® X-100 in PBS at 4° C. for 5 min. After preincubation with […] Promega equilibration buffer for 10 min at room temperature, the cells were covered with 50 μl TdT incubation buffer and a coverslip and maintained at 37° C. for 60 min inside the dark humidified chamber to protect from dry and direct light. In order to stop the reaction, the coverslip was removed and the slides were immersed in 2×SSC for 15 min at room temperature. The cells were restained by propidium iodide 1 μg/ml in PBS for 15 min. After every step, the cells were rinsed 2-3 times with fresh PBS for 5 min each. Finally, the glass slides were sealed with nail polish. The slides were stored at 4° C. in the dark.
(§6) The evidence that DNA strand breaks, characteristic of apoptosis, are induced by the A3 antagonists was obtained using in situ end-labelingin-situ of fragmented nuclear DNA by terminal deoxynucleotidyl transferase (TUNEL method, Cooke, H., Trends in Biotech., 10, 23 (1992)), which incorporates a fluorescent label at the 3'-ends. […] In the control cultures and in those treated with 10 nM Cl-IB-MECA alone, spontaneous apoptosis occured in only 5-7% of the cells (Table 17). […] The reversal of antagonist-induced apoptosis by the agonist is similar to that observed for the growth curves, except that both agonist and antagonist were applied at lower concentrations.

HL-60 cells [7] = experiment: in situ end-labeling of fragmented nuclear DNA (TUNEL), HL-60 cells; type: cell-based; settings: for fluorescent labeling of apoptotic cells, HL-60: 50 nM, 24 h, approximately; for Percentage of apoptotic cells, HL-60, + Cl-IB-MECA: antagonist 50 nM plus Cl-IB-MECA 10 nM; for Percentage of apoptotic cells, HL-60: antagonist 50 nM
Experimental: as §5, §6

[8] = test system: bak in MCF7 breast adenocarcinoma cells; experiment: expression of bak, MCF7 cells; type: cell-based; settings: 10 μM
Experimental: as §1
(§7) Various other cell lines were investigated for the expression of bak in response to the A3 agonist.

U-937 cells [9] = experiment: apoptosis by flow cytometric DNA analysis, U-937 cells; type: cell-based
Experimental: DNA content analysis by flow cytometry:
as §8

[10] = test system: bak in 1321N astrocytoma cells; experiment: expression of bak, 1321N cells; type: cell-based; settings: 10 μM
Experimental: as §1, §7

adenosine receptor = settings: [3H]cyclohexyladenosine and [3H]1,3-diethyl-8-phenylxanthine; cited from earlier work
adenosine receptors = settings: pancreatic islets; cited from earlier work
Female Mongolian gerbils = experiment: bilateral carotid occlusion (stroke) in gerbils, survival and intact neurons; type: in vivo, Mongolian gerbil; settings: for survival rate after ischemia: 100 μg/kg 15 min after occlusion; for intact neurons: 100 μg/kg
Experimental: Control gerbils were injected with saline. The survival of the animals was followed as a function of time after ischemia.
The number of intact neurons was also counted.

A2a receptors = target: T1, A2a receptors (Rattus norvegicus, UniProt P30543); experiment: radioligand binding, displacement of specific [3H]CGS 21680 binding in rat striatal membranes; settings: Table 11; 10^-4 M; read-out: displacement of specific binding rA2A
T1 construct: Displacement of specific [^3 H]; from tissue; host or cells: rat striatal membranes
T1 sequence (P30543 whole entry): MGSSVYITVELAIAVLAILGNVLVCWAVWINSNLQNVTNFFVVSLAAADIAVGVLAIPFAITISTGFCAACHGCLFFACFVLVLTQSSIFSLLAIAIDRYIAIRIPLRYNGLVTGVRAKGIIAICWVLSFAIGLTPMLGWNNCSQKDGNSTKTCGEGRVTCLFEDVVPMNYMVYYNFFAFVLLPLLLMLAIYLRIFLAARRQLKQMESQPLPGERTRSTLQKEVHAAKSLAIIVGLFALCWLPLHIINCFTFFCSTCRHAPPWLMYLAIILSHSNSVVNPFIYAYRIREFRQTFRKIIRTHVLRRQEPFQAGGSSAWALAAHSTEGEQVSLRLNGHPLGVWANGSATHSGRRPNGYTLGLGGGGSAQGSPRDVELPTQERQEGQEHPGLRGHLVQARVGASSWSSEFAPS
Experimental: ^b Displacement of specific [^3 H]
or as a percentage of specific binding displaced at 100 μM.

rabbit lung = experiment: bronchoconstriction / dynamic compliance (Cdyn) in allergic rabbits; type: in vivo, New Zealand white rabbit; settings: antagonist 10^-5 M, 2 minute aerosol, co-administered with agonist
Experimental: New Zealand white pasteurella free rabbit litter mates were exposed to A3 adenosine agonist APNEA, IB-MECA, or Cl-IB-MECA and the percent change in dynamic compliance (Cdyn) was measured as a function of the adenosine dose using known procedures. […] Allergy was induced in the rabbits using dust mites.
The antagonist was administered at a constant dose of 10^-5 M through a 2 minute aerosilization, followed by a 15 minute wait before the measurement of dynamic compliance.

[11] = sublethal concentrations incl. 10 nM
[12] = 10 nM Cl-IB-MECA with either antagonist
[13] = 10 nM alone, range covers both cell lines and controls
[14] = Table 17, Cl-IB-MECA 10 nM, 48 hour

For Nc1ccc(CCNc2ncnc3c2ncn3[C@@H]2O[C@H](CO)[C@@H](O)[C@H]2O)cc1 [APNEA], the “displacement of A3 specific binding” value (A3 specific binding) was “A3 specific binding was displaced”.

With CNC(=O)[C@H]1O[C@@H](n2cnc3c(NCc4cccc(I)c4)nc(Cl)nc32)[C@H](O)[C@@H]1O [Cl-IB-MECA, N^6-(3-iodobenzyl)-2-chloro-adenosine-5'-N-methyluronamide] the “expression of bak, U-937” value ([1]; 30 μM) was “induced a significant level of expression of bak”, the “expression of bak, U-937” value ([1]; ≤1 μM) was “not concentrations ≤1 μM” and the “growth curve, HL-60” value (HL-60 cells [2]; 0.01 or 1.0 μM alone, 9 days) was “no deviation from this growth curve was observed”. For the same compound, the “death of HL-60 cells in culture” value (HL-60 cells [2]; 20 or 40 μM, after 4 days) was over 90%, the “effect of agonist on impairment of proliferation by antagonist, HL-60” value (HL-60 cells [2]; [11]) was “reversed the impairment of cell proliferation” and the “general cell death at lower concentrations, HL-60” value (HL-60 cells [2]; ≤1 μM, trypan blue) was “did not significantly promote”. The “concentration at which plateau of apoptosis begins, HL-60” value (HL-60 cells [3]; 48 hours) was “approximately 10 μM”, the “plateau in the percent of apoptotic cells, HL-60” value (HL-60 cells [3]; 48 hours) was 30-50% and the “apoptosis in HL-60 cells” value (HL-60 cells [3]; high concentrations (≥μM)) was “caused apoptosis”. For the same compound, the “apoptosis at lower concentrations, HL-60” value (HL-60 cells [3]; ≤1 μM) was “did not significantly promote apoptosis”, the “growth curve, U-937” value (U-937 cells [4]; 0.01 or 1.0 μM alone, 9 days) was “no deviation from this growth curve was observed” and the “effect of agonist on impairment of proliferation by antagonist, U-937” value (U-937 cells [4]; [11]) was “reversed the impairment of cell proliferation”. For the same compound, the “general cell death at lower concentrations, U-937” value (U-937 cells [4]; ≤1 μM, trypan blue) was “did not significantly promote”, the “expression of bak, HL-60” value ([5]; 30 μM) was “induced a significant level of expression of bak” and the “expression of bak, HL-60” value ([5]; ≤1 μM) was “not concentrations ≤1 μM”. The “coadministration with antagonist, apoptotic cells, U-937” value (U-937 cells [6]; [12]) was “suppressed the increase in apoptotic cells”, the “apoptosis (TUNEL), Cl-IB-MECA alone, U-937” value (U-937 cells [6]; [13]) was 5-7% and the “DNA fragmentation labeling (TUNEL), U-937” value (U-937 cells [6]; 30 μM) was “approximately 50%”. The “Percentage of apoptotic cells, U937, Cl-IB-MECA alone” value (U-937 cells [6]; [14]) was 5.6 Percentage, the “coadministration with antagonist, apoptotic cells, HL-60” value (HL-60 cells [7]; [12]) was “suppressed the increase in apoptotic cells” and the “apoptosis (TUNEL), Cl-IB-MECA alone, HL-60” value (HL-60 cells [7]; [13]) was 5-7%. The “DNA fragmentation labeling (TUNEL), HL-60” value (HL-60 cells [7]; 30 μM) was “approximately 50%”, the “Percentage of apoptotic cells, HL-60, Cl-IB-MECA alone” value (HL-60 cells [7]; [14]) was 7.1 Percentage and the “expression of bak, MCF7” value [8] was “found to induce the expression of bak”. The “concentration at which plateau of apoptosis begins, U-937” value (U-937 cells [9]; 48 hours) was “approximately 10 μM”, the “plateau in the percent of apoptotic cells, U-937” value (U-937 cells [9]; 48 hours) was 30-50% and the “apoptosis in U-937 cells” value (U-937 cells [9]; high concentrations (≥μM)) was “A similar response was observed”. The “apoptosis at lower concentrations, U-937” value (U-937 cells [9]; ≤1 μM) was “did not significantly promote apoptosis” and the “expression of bak, 1321N” value [10] was “found to induce the expression of bak”.

In the case of COC(=O)C1=C(C)NC(C)=C(C(=O)OC)C1c1ccccc1[N+](=O)[O-] [Compound 60, nifedipine], the “effect on adenosine receptor binding” value (adenosine receptor) is listed as “potent in reducing the binding” and the “interaction with adenosine receptors mediating inhibition of insulin secretion” value (adenosine receptors) is listed as “may not interact with adenosine receptors”.

In the case of CCOC(=O)C1=C(C)NC(c2ccccc2)=C(C(=O)OCc2ccccc2)C1C#Cc1ccccc1 (stereo not drawn) [Compound 101], the “bak labeling, U-937” value [1] is reported as “present”, the “growth curve with A3 antagonist plus Cl-IB-MECA, HL-60” value (HL-60 cells [2]) is reported as “the growth curves were nearly coincident with control curves” and the “survival rate after ischemia” value (Female Mongolian gerbils; after 7 days) is reported as 90%. The “survival rate after ischemia” value (Female Mongolian gerbils; after 90 days) was 80%, the intact neurons (Female Mongolian gerbils; after 7 days) was 75% and the intact neurons (Female Mongolian gerbils; after 90 days) was 90%. The “growth curve with A3 antagonist plus Cl-IB-MECA, U-937” value (U-937 cells [4]) was “the growth curves were nearly coincident with control curves”, the “bak labeling, HL-60” value [5] was “present” and the inhibition at 100 µM (A2a receptors) was under 10%. The “fluorescent labeling of apoptotic cells, U-937” value (U-937 cells [6]) was 30-40%, the “Percentage of apoptotic cells, U937, + Cl-IB-MECA” value (U-937 cells [6]; Table 17, 48 hour) was 10.4 Percentage and the “Percentage of apoptotic cells, U937” value (U-937 cells [6]; Table 17, 48 hour) was 27.3 Percentage. The “fluorescent labeling of apoptotic cells, HL-60” value (HL-60 cells [7]) was 30-40%, the “Percentage of apoptotic cells, HL-60, + Cl-IB-MECA” value (HL-60 cells [7]; Table 17, 48 hour) was 11.6 Percentage and the “Percentage of apoptotic cells, HL-60” value (HL-60 cells [7]; Table 17, 48 hour) was 39.7 Percentage. For the same compound, the “percent change in dynamic compliance (Cdyn)” value (rabbit lung) was “much reduced”.

For CN1C=CC2=C(CC(=O)O)Cn3nc(-c4ccccc4)nc3C2=C1 [Compound L-249313, 6-carboxymethyl-5,9-dihydro-9-methyl-2-phenyl-[1,2,4]triazolo[5,1-a][2,7]-naphthyridine], the “bak labeling, U-937” value [1] was “present”, the “inhibition of proliferation, HL-60” value (HL-60 cells [2]; 0.5 μM alone) was “general inhibition of proliferation of cells” and the “growth curve with A3 antagonist plus Cl-IB-MECA, HL-60” value (HL-60 cells [2]) was “the growth curves were nearly coincident with control curves”. For the same compound, the “inhibition of proliferation, U-937” value (U-937 cells [4]; 0.5 μM alone) was “general inhibition of proliferation of cells”, the “growth curve with A3 antagonist plus Cl-IB-MECA, U-937” value (U-937 cells [4]) was “the growth curves were nearly coincident with control curves” and the “bak labeling, HL-60” value [5] was “present”. The “fluorescent labeling of apoptotic cells, U-937” value (U-937 cells [6]) was 30-40%, the “Percentage of apoptotic cells, U937, + Cl-IB-MECA” value (U-937 cells [6]; Table 17, 48 hour) was 10.9 Percentage and the “Percentage of apoptotic cells, U937” value (U-937 cells [6]; Table 17, 48 hour) was 30.8 Percentage. For the same compound, the “fluorescent labeling of apoptotic cells, HL-60” value (HL-60 cells [7]) was 30-40%, the “Percentage of apoptotic cells, HL-60, + Cl-IB-MECA” value (HL-60 cells [7]; Table 17, 48 hour) was 12.0 Percentage and the “Percentage of apoptotic cells, HL-60” value (HL-60 cells [7]; Table 17, 48 hour) was 31.2 Percentage.

In the case of COc1ccc([C@@H]2Sc3ccccc3N(CCN(C)C)C(=O)[C@@H]2OC(C)=O)cc1 [diltiazem], the “effect on adenosine receptor binding” value (adenosine receptor) is given as “negligible effects on adenosine receptor binding”.

For COc1ccc(CCN(C)CCCC(C#N)(c2ccc(OC)c(OC)c2)C(C)C)cc1OC (stereo not drawn) [verapamil], the “effect on adenosine receptor binding” value (adenosine receptor) is listed as “negligible effects on adenosine receptor binding” and the “interaction with adenosine receptors mediating inhibition of insulin secretion” value (adenosine receptors) is listed as “may not interact with adenosine receptors”.
